The numbers were not newly measured in patent US20090239791A1, “PHARMACEUTICAL COMPOSITION CONTAINING LIPOPHILIC SUBSTANCE WHICH INHIBITS IL-2 PRODUCTION” (Astellas Pharma Inc., priority 2007, published 2009), which cites them from elsewhere.

The test system of the data set is human mixed lymphocyte reaction. The conditions noted are these: Transplant Proceedings, No 5, Suppl 6, 36-39, 1987.

In the case of `C=CC[C@@H]1/C=C(\C)C[C@H](C)C[C@H](OC)C2O[C@@](O)(C(=O)C(=O)N3CCCC[C@H]3C(=O)O[C@H](/C(C)=C/[C@@H]3CC[C@@H](O)[C@H](OC)C3)[C@H](C)[C@@H](O)CC1=O)[C@H](C)C[C@@H]2OC` (relative stereo) [Tacrolimus, [3S-[3R*[E(1S*,3S*,4S*)],4S*,5R*,8S*,9E,12R*,14R*,15S*,16R*,18S*,19S*,26aR*]]-5,6,8,11,12,13,14,15,16,17,18,19,24,25,26,26a-hexadecahydro-5,19-dihydroxy-3-[2-(4-hydroxy-3-methoxycyclohexyl)-1-methylethenyl]-14,16-dimethoxy-4,10,12,18-tetramethyl-8-(2-propenyl)-15,19-epoxy-3H-pyrido[2,1-c][1,4]oxaazacyclotricosine-1,7,20,21(4H,23H)-tetrone, monohydrate], the “IC50 (a 50% inhibitory drug concentration in a human mixed lymphocyte reaction)” value is on record as 0.18 ng/mL.
